Measured values taken from US20160038439A1, “Use of 7-a-[9-(4,4,5,5,5-pentafluoropentylsulfinyl)nonyl]-estra-1,3,5(10)- triene-3,17B-diol and derivatives thereof” (XI'ANLIBANG PHARMACEUTICAL TECHNOLOGY CO., LTD., priority 2013, published 2016).
Marks after values point to notes of the source that are not given here.

Tests used:
[1] = system: chicken type II collagen-induced arthritis model in SD rats; assay: Hindfoot joint score in chicken type II collagen-induced arthritis model in SD rats; format: in vivo; design: scale not given here; conditions: tail vein, every other day
Procedure: (§1) After inflamed model was successfully established in SD rats, the SD rats were randomly divided into model control group (12 rats), low, medium dose group (8 rats for each), and high dose group (12 rats) of test drug depending on body weight. Rats in the model control group were administered a blank fat emulsion injection (0.5 mL) by tail vein injection every other day for 7 days; rats in the low and medium dose group of test drug were administered a fat emulsion injection of a compound of Formula A (specifically including Compounds I-VI described hereafter) by tail vein injection every other day for 7 days; rats in the high dose group of test drug were administered a fat emulsion injection of a compound of Formula A by tail vein injection every other day for 14 days. 12 same models in the normal control group were also administered a blank fat emulsion injection. Indexes such as hindfoot joint score, hindfoot joint thickness measurement, TNF-α level in serum and hindfoot joint tissues, hindfoot joint pathological section and the like were used to evaluate efficacy of the drug.
(§2) Chicken type II collagen was dissolved in 0.1 mol/L acetic acid at 4° C. while stirring so as to be thoroughly dissolved at a concentration of 2 mg/mL The resulting solution was put into a refrigerator at 4° C. overnight. Liquid paraffin and lanolin were mixed at a ratio of 2:1 (volume ratio), and the mixture was autoclaved to prepare an incomplete Freund's adjuvant (IFA). Bacillus Calmette Guerin (BCG) vaccine (60 mg) was inactivated at 80° C. for 1 hour and transferred to a mortar, into which was dropwise added IFA. After being uniformly grinded, the resulting mixture was pushed and sucked repeatedly by double-syringe to prepare a complete Freund's adjuvant (CFA), with the final concentration of BCG vaccine being 2 mg/mL. An equal amount of chicken type II collagen acid solution was mixed with CFA into a stable emulsion (containing 1 mg chicken type II collagen per milliliter).
(§3) 12 female SD rats were randomly selected from 192 female SD rats as normal control group. The remaining 180 rats was disinfected with iodine tincture. After being deiodinated with 75% ethanol, each of the rat was administered 150 μL collagen emulsion by intradermal injection at the base of the tail, and was administered 100 μL collagen emulsion by intradermal injection at the vola pedis of right hindfoot. Thus, totally 250 μL for each rat was administered. 7 days later, an equal amount of collagen emulsion was intraperitoneal injected as a secondary immune.
(§4) Animal grouping and administration: inflamed rats were divided into model control group, low, medium and high dose groups of test drug based on body weight.
(§5) Rats in each group were scored for the hindfoot joint and measured for the thickness of ankle joint before being inflamed. Normal rats were taken blood from orbital venous plexus. The serum of the blood was separated out and cryopreserved at −20° C. to detect cytokines. Rats were scored for joint after being inflamed for 3 days, and were measured for the thickness of ankle joint before administration (on the 19th day since being inflamed), on the 3rd day and 8th day after administration (on the […] since being inflamed). Rats in each group were taken blood from orbital venous plexus when inflammation was severe (on the 23rd day after being inflamed). The serum of the blood was separated out and cryopreserved at −20° C. 8 rats for each group were sacrificed on the 28th day after being inflamed and were taken blood from intraperitoneal vein. The serum of the blood was separated out and was subjected to serological detection (TNF-α). The rest of rats were sacrificed on the 35th day after being inflamed, and histology index detection was carried out

TNF-α [2] = assay: TNF-α level in hindfoot ankle joint tissue of rats with arthritis; format: in vivo, SD rats
Procedure: as §1
(§6) Compound I used in the present invention was purchased from Xi′ an Libang Pharmaceutical Co., Ltd.; Compounds II-IV were synthesized by the following method. SD rats used in the present invention were purchased from Super-B&K Laboratory Animal Corp. Ltd.; chicken type II collagen was purchased from Sigma, Lot No. 87H5227; rat tumor necrosis factor-α [TNF-α] enzyme-linked immunoassay kit (ELISA) was purchased from Shanghai Biovol Biotech Co., Ltd., Lot No. BV-E12102201.
as §2, §3, §4
as §5, with “8 rats for each group were sacrificed on the 28th day after being inflamed and were taken blood from intraperitoneal vein. The serum of the blood was separated out and was subjected to serological detection (TNF-α). The rest of rats were sacrificed on the 35th day after being inflamed, and histology index detection was carried out” left out

TNF-α [3] = assay: TNF-α level in serum of rats with arthritis (ELISA); format: in vivo, SD rats
Procedure: as §1, §6, §2, §3, §4
as §5, with “8 rats for each group were sacrificed on the 28th day after being inflamed and were taken blood from intraperitoneal vein. The serum of the blood was separated out and was subjected to serological detection (TNF-α). The rest of rats were sacrificed on the 35th day after being inflamed, and histology index detection was carried out” left out

[4] = system: chicken type II collagen-induced arthritis model in SD rats; assay: Pathological examination score of hindfoot ankle joint of rats with arthritis; format: in vivo; conditions: high dose group (1.40-2.16 mg/kg per compound), every other day for 14 days, n=4
Procedure: as §1, §2
as §3, with “Thus, totally 250 μL for each rat was administered. 7 days later, an equal amount of collagen emulsion was intraperitoneal injected as a secondary immune.” left out
Rats in each group were scored for the hindfoot joint and measured for the thickness of ankle joint before being inflamed. […] Rats were scored for joint after being inflamed for 3 days, and were measured for the thickness of ankle joint before administration (on the 19th day since being inflamed), on the 3rd day and 8th day after administration (on the 20th day since being inflamed). […]

[5] = system: chicken type II collagen-induced arthritis model in SD rats; assay: Thickness of right hindfoot ankle joint by microcalliper, collagen-induced arthritis rats; format: in vivo
Procedure: as §1, §2, §3, §4, §5

[6] = high dose group, before administration (baseline)
[7] = high dose group, the 3rd day after administration
[8] = high dose group, the 8th day after administration
[9] = low dose group, before administration (baseline)
[10] = low dose group, the 3rd day after administration
[11] = low dose group, the 8th day after administration
[12] = medium dose group, before administration (baseline)
[13] = medium dose group, the 3rd day after administration
[14] = medium dose group, the 8th day after administration
[15] = left ankle joint, high dose group
[16] = left ankle joint, low dose group
[17] = left ankle joint, medium dose group
[18] = right ankle joint, high dose group
[19] = right ankle joint, low dose group
[20] = right ankle joint, medium dose group

Molecule	Mean value of hindfoot joint score [1, 6]	Mean value of hindfoot joint score [1, 7]	Mean value of hindfoot joint score [1, 8]	Mean value of hindfoot joint score [1, 9]	Mean value of hindfoot joint score [1, 10]	Mean value of hindfoot joint score [1, 11]	Mean value of hindfoot joint score [1, 12]	Mean value of hindfoot joint score [1, 13]	TNF-α level in ankle (mean ± SD) (TNF-α [2]; [15]) [pg/mL]	TNF-α level in ankle (mean ± SD) (TNF-α [2]; [16]) [pg/mL]	TNF-α level in ankle (mean ± SD) (TNF-α [2]; [17]) [pg/mL]	TNF-α level in ankle (mean ± SD) (TNF-α [2]; [18]) [pg/mL]	TNF-α level in ankle (mean ± SD) (TNF-α [2]; [19]) [pg/mL]	TNF-α level in ankle (mean ± SD) (TNF-α [2]; [20]) [pg/mL]	TNF-α level in serum (mean ± SD) (TNF-α [3]; [7]) [pg/mL]	TNF-α level in serum (mean ± SD) (TNF-α [3]; [8]) [pg/mL]	TNF-α level in serum (mean ± SD) (TNF-α [3]; [10]) [pg/mL]	TNF-α level in serum (mean ± SD) (TNF-α [3]; [11]) [pg/mL]	TNF-α level in serum (mean ± SD) (TNF-α [3]; [13]) [pg/mL]	TNF-α level in serum (mean ± SD) (TNF-α [3]; [14]) [pg/mL]	also measured
7-α-[9-(4,4,5,5,5-pentafluoropentylsulfinyl)nonyl]-estra-1,3,5(10)-triene-3-acetyl-17-(undec-2-enoyl) [Compound VI]	5.3	4.7**^#	5.5	4.6	5.4**^##	4.9	4.8	4.6**	12.05 ± 4.01	14.39 ± 3.52	13.98 ± 3.66	14.58 ± 2.79	15.31 ± 5.02	12.67 ± 5.23	28.27 ± 37.62	26.56 ± 18.06	47.22 ± 96.55	197.35 ± 231.02	13.08 ± 7.93	78.21 ± 88.90	Mean value of hindfoot joint score [1, 14]: 5.5; Joint lesion score (mean ± SD) [4]: 1.88 ± 1.26
7-α-[9-(4,4,5,5,5-pentafluoropentylsulfinyl)nonyl]-estra-1,3,5(10)-triene-3-hydroxyl-17-(undec-2-enoyl) [Compound V]	4.5	5.6^##	4.8	4.6	5.1**	5.9^##	4.4	5.7^##	12.76 ± 3.34	13.56 ± 5.28	14.25 ± 5.00	13.68 ± 4.44	12.71 ± 4.00	11.73 ± 4.20	46.48 ± 101.05	12.35 ± 9.72	66.71 ± 121.06	123.73 ± 157.16	10.02 ± 14.59	23.44 ± 27.21	Thickness of ankle joint (mean ± SD) [5, 6]: 6.28 ± 0.44 mm; Thickness of ankle joint (mean ± SD) [5, 7]: 6.44 ± 0.60 mm; Thickness of ankle joint (mean ± SD) [5, 8]: 6.07 ± 0.41 mm; Thickness of ankle joint (mean ± SD) [5, 9]: 6.27 ± 0.36 mm; Thickness of ankle joint (mean ± SD) [5, 10]: 6.36 ± 0.64 mm; Thickness of ankle joint (mean ± SD) [5, 11]: 6.20 ± 0.52 mm; Thickness of ankle joint (mean ± SD) [5, 12]: 6.09 ± 0.45 mm; Thickness of ankle joint (mean ± SD) [5, 13]: 6.74 ± 0.44 mm; Thickness of ankle joint (mean ± SD) [5, 14]: 6.15 ± 0.37 mm; Mean value of hindfoot joint score [1, 14]: 4.4*; Joint lesion score (mean ± SD) [4]: 3.75 ± 2.06
7-α-[9-(4,4,5,5,5-pentafluoropentylsulfinyl)nonyl]-estra-1,3,5(10)-triene-3-hydroxyl-17-docosanoyl [Compound III]	5.4	4.8**^#	5.6	4.5	5.3**^##	5	5	4.8**	11.05 ± 3.96	12.93 ± 4.15	13.62 ± 3.42	13.85 ± 3.38	14.13 ± 4.20	12.02 ± 5.91	16.53 ± 15.71	10.36 ± 7.08	81.94 ± 141.25	157.89 ± 248.01	12.31 ± 17.56	39.56 ± 29.29	Thickness of ankle joint (mean ± SD) [5, 6]: 6.59 ± 0.44 mm; Thickness of ankle joint (mean ± SD) [5, 7]: 6.55 ± 0.56 mm; Thickness of ankle joint (mean ± SD) [5, 8]: 6.31 ± 0.69 mm; Thickness of ankle joint (mean ± SD) [5, 9]: 5.94 ± 0.52 mm; Thickness of ankle joint (mean ± SD) [5, 10]: 6.22 ± 0.38 mm; Thickness of ankle joint (mean ± SD) [5, 11]: 6.06 ± 0.29 mm; Thickness of ankle joint (mean ± SD) [5, 12]: 6.33 ± 0.52 mm; Thickness of ankle joint (mean ± SD) [5, 13]: 6.45 ± 0.53 mm; Thickness of ankle joint (mean ± SD) [5, 14]: 6.36 ± 0.46 mm; Mean value of hindfoot joint score [1, 14]: 5.4; Joint lesion score (mean ± SD) [4]: 1.50 ± 1.91
C[C@]12CC[C@@H]3c4ccc(O)cc4C[C@@H](CCCCCCCCC[S+]([O-])CCCC(F)(F)C(F)(F)F)[C@H]3[C@@H]1CC[C@@H]2O (stereo partly drawn) [Compound I, 7-α-[9-(4,4,5,5,5-pentafluoropentylsulfinyl)nonyl]-estra-1,3,5(10)-triene-3,17β-diol, reference compound]	–	–	–	–	–	–	–	–	8.66 ± 4.33	10.16 ± 5.82	9.57 ± 5.10	8.98 ± 7.44	10.71 ± 4.61	9.63 ± 3.02	13.48 ± 25.05	18.45 ± 12.72	50.15 ± 60.06	52.78 ± 67.16	31.55 ± 54.58	22.41 ± 25.25	–
